Experimental data published in US9937225B2, “Topical formulations and uses thereof” (OCULAR TECHNOLOGIES SARL, priority 2012, dated 2018).

Legend:
[1] = Visual appearance of mixed nanomicellar formulation; format: physicochemical; conditions: for Final formulation / Resuspend in water / Final formulation (make up with 2X buffer containing 0.01% Oc-40): 1001 4 wt %; for Result: solvent evaporation, HCO-60 4 wt %, Octoxynol-40 0.01 wt %
Method: Mixed nanomicellar formulation encapsulating compound 1001 was prepared by solvent evaporation method in two steps: 1) Preparation of basic formulation and 2) rehydration. In step one, compound 1001, HCO-60 and octoxynol-40 were dissolved separately in 0.3 mL of ethyl acetate. These three solutions were mixed together in 15-mL centrifuge tube. The resultant mixture was vortexed to obtain a homogenous solution. Ethyl acetate solvent was removed with speed vacuum to obtain a solid thin film. The residue was kept overnight under high vacuum at room temperature to remove residual organic solvent. In step two, the resultant thin film was hydrated with 1 mL of double distilled deionized water by vortexing the solution. The rehydrated formulation was suspended in 2× phosphate buffer solution, (pH 6.5). It was filtered through 0.2 μm nylon filter membrane to remove the unentrapped drug aggregates and other foreign particulates. […]
The preparation of MNF encapsulating compound 1001 (neat oil) can be divided into two steps. As an example for the development of 3.0 wt % HCO-40 or HCO-60 MNF encapsulating 0.4% compound 1001 is described below. […] To this melt polymer compound 1001 (˜20 mg), thermostated at 40° C., was added and mixed for homogenous distribution. […] (in refrigerator).
This aqueous solution was allowed to reach room temperature, under natural conditions. The pH of the solution was adjusted to 5.5 and the volume was made up with 2× phosphate buffer saline (pH 5.5) containing octoxynol-40 (0.01 wt %) and PVP-K-90 (1.2 wt %). The formulation was filtered through 0.2 μm nylon filter to remove any foreign material and obtain a clear homogenous aqueous RX-1001 formulation.
The results obtained for physical appearance of the mixture, different phases, at different temperatures and appearance of final formulation are summarized in Tables 2a-2c. […]

[2] = Ocular tissue distribution of compound 1001 nanomicellar formulations (LC-MS/MS); format: in vivo, New Zealand White Rabbits; conditions: rabbits, topical ocular administration
Method: A study was conducted in rabbits to test the tolerance and ocular tissue distribution of two nanomicellar formulations of compound 1001 (RX10045) against matching placebos (Table 6a and 6b) and balanced saline solution (BSS). Healthy New Zealand female white rabbits (2-3 kg) were used for this study. One drop (approximately 35 μL) of study drug was applied o.d. 4×/day at two hour intervals for 5 days. One drop of BSS was applied to the contralateral eye.
Selected ocular fluids/tissues (aqueous humor, vitreous humor, conjunctiva, cornea, iris-ciliary body, lens, retina/choroid, and sclera) collected from two rabbits each in the RX-10045 (0.15% in HCO-60, 0.1% in HCO-40) treatment groups, and from one rabbit in each of the matching placebo groups, were assayed for compound 1001 and another resolvin by liquid chromatography-tandem mass spectrometry (LC-MS/MS). Warfarin-d5 and 5-HDA were used as internal standards for the analysis of RX-10045 and its active metabolite, RX-10008, respectively, in aqueous humor and vitreous humor. For the other ocular tissues (solid tissues), warfarin-d5 and phenyl acetic acid-d5 (PAA-d5) were used as the internal standards for compound 1001 and RX-10008, respectively. The analytical range for the solid tissues were 0.125-100 ng. The results of the solid tissue analyses were converted to ng/g by correcting for the amount of tissue analyzed.

[3] = melt at 40° C., cooled to room temperature, HCO-40 0.5 wt %
[4] = melt at 40° C., cooled to room temperature, HCO-40 0.75 wt %
[5] = melt at 40° C., cooled to room temperature, HCO-40 1.0 wt %
[6] = melt at 40° C., cooled to room temperature, HCO-40 1.25 wt %
[7] = melt at 40° C., cooled to room temperature, HCO-40 1.5 wt %
[8] = melt at 40° C., cooled to room temperature, HCO-40 1.75 wt %
[9] = melt at 40° C., cooled to room temperature, HCO-40 2.0 wt %
[10] = melt at 40° C., cooled to room temperature, HCO-40 2.25 wt %
[11] = melt at 40° C., cooled to room temperature, HCO-40 2.5 wt %
[12] = melt at 40° C., cooled to room temperature, HCO-40 2.75 wt %
[13] = melt at 40° C., cooled to room temperature, HCO-40 3.0 wt %
[14] = melt at 40° C., cooled to room temperature, HCO-40 4.0 wt %

C#CC[C@@H](O)/C=C/C=C/C#C[C@@H](O)CCCC(=O)OC(C)C [compound 1001]
Final formulation [1, 3]: Emulsion | Resuspend in water [1, 3]: Emulsion | Final formulation [1, 4]: Emulsion | Resuspend in water [1, 4]: Emulsion | Final formulation [1, 5]: Emulsion | Resuspend in water [1, 5]: Emulsion | Final formulation [1, 6]: Emulsion | Resuspend in water [1, 6]: Emulsion | Final formulation [1, 7]: Emulsion | Resuspend in water [1, 7]: Emulsion | Final formulation [1, 8]: Emulsion | Resuspend in water [1, 8]: Emulsion | Final formulation [1, 9]: Emulsion | Resuspend in water [1, 9]: Emulsion | Final formulation [1, 10]: Emulsion | Resuspend in water [1, 10]: Emulsion | Final formulation [1, 11]: Yellow color | Resuspend in water [1, 11]: Yellow | Final formulation [1, 12]: Pale yellow | Resuspend in water [1, 12]: Pale yellow | Final formulation [1, 13]: Clear | Resuspend in water [1, 13]: Clear | Final formulation [1, 14]: Clear | Resuspend in water [1, 14]: Clear | Resuspend in water ([1]; melt cooled to 25° C., placed at 4° C., back to room temperature, water at 40° C., HCO-40 0.5 wt %): Emulsion | Resuspend in water ([1]; melt cooled to 25° C., placed at 4° C., back to room temperature, water at 40° C., HCO-40 0.75 wt %): Emulsion | Resuspend in water ([1]; melt cooled to 25° C., placed at 4° C., back to room temperature, water at 40° C., HCO-40 1.0 wt %): Emulsion | Resuspend in water ([1]; melt cooled to 25° C., placed at 4° C., back to room temperature, water at 40° C., HCO-40 1.25 wt %): Emulsion | Resuspend in water ([1]; melt cooled to 25° C., placed at 4° C., back to room temperature, water at 40° C., HCO-40 1.5 wt %): Emulsion | Resuspend in water ([1]; melt cooled to 25° C., placed at 4° C., back to room temperature, water at 40° C., HCO-40 1.75 wt %): Emulsion | Resuspend in water ([1]; melt cooled to 25° C., placed at 4° C., back to room temperature, water at 40° C., HCO-40 2.0 wt %): Emulsion | Resuspend in water ([1]; melt cooled to 25° C., placed at 4° C., back to room temperature, water at 40° C., HCO-40 2.25 wt %): Emulsion | Resuspend in water ([1]; melt cooled to 25° C., placed at 4° C., back to room temperature, water at 40° C., HCO-40 2.5 wt %): Yellow | Resuspend in water ([1]; melt cooled to 25° C., placed at 4° C., back to room temperature, water at 40° C., HCO-40 2.75 wt %): Pale yellow | Resuspend in water ([1]; melt cooled to 25° C., placed at 4° C., back to room temperature, water at 40° C., HCO-40 3.0 wt %): Clear | Resuspend in water ([1]; melt cooled to 25° C., placed at 4° C., back to room temperature, water at 40° C., HCO-40 4.0 wt %): Clear | Final formulation ([1]; melt cooled to 25° C., placed at 4° C., back to room temperature, HCO-40 0.5 wt %): Emulsion | Final formulation ([1]; melt cooled to 25° C., placed at 4° C., back to room temperature, HCO-40 0.75 wt %): Emulsion | Final formulation ([1]; melt cooled to 25° C., placed at 4° C., back to room temperature, HCO-40 1.0 wt %): Emulsion | Final formulation ([1]; melt cooled to 25° C., placed at 4° C., back to room temperature, HCO-40 1.25 wt %): Emulsion | Final formulation ([1]; melt cooled to 25° C., placed at 4° C., back to room temperature, HCO-40 1.5 wt %): Emulsion | Final formulation ([1]; melt cooled to 25° C., placed at 4° C., back to room temperature, HCO-40 1.75 wt %): Emulsion | Final formulation ([1]; melt cooled to 25° C., placed at 4° C., back to room temperature, HCO-40 2.0 wt %): Emulsion | Final formulation ([1]; melt cooled to 25° C., placed at 4° C., back to room temperature, HCO-40 2.25 wt %): Emulsion | Final formulation ([1]; melt cooled to 25° C., placed at 4° C., back to room temperature, HCO-40 2.5 wt %): Yellow color | Final formulation ([1]; melt cooled to 25° C., placed at 4° C., back to room temperature, HCO-40 2.75 wt %): Very pale yellow | Final formulation ([1]; melt cooled to 25° C., placed at 4° C., back to room temperature, HCO-40 3.0 wt %): Clear | Final formulation ([1]; melt cooled to 25° C., placed at 4° C., back to room temperature, HCO-40 4.0 wt %): Clear | Final formulation (make up with 2X buffer containing 0.01% Oc-40) ([1]; melt method, HCO-60 1.0 wt %): Emulsion | Resuspend in water ([1]; melt method, HCO-60 1.0 wt %, water at 40°): Emulsion | Final formulation (make up with 2X buffer containing 0.01% Oc-40) ([1]; melt method, HCO-60 2.0 wt %): Pale yellow | Resuspend in water ([1]; melt method, HCO-60 2.0 wt %, water at 40°): Forms pale | Final formulation (make up with 2X buffer containing 0.01% Oc-40) ([1]; melt method, HCO-60 2.25 wt %): Pale yellow | Resuspend in water ([1]; melt method, HCO-60 2.25 wt %, water at 40°): Forms pale | Final formulation (make up with 2X buffer containing 0.01% Oc-40) ([1]; melt method, HCO-60 2.5 wt %): Pale yellow | Resuspend in water ([1]; melt method, HCO-60 2.5 wt %, water at 40°): Forms very | Final formulation (make up with 2X buffer containing 0.01% Oc-40) ([1]; melt method, HCO-60 2.75 wt %): Clear solution | Resuspend in water ([1]; melt method, HCO-60 2.75 wt %, water at 40°): Forms very | Final formulation (make up with 2X buffer containing 0.01% Oc-40) ([1]; melt method, HCO-60 3.0 wt %): Clear solution | Resuspend in water ([1]; melt method, HCO-60 3.0 wt %, water at 40°): Clear solution | Final formulation (make up with 2X buffer containing 0.01% Oc-40) ([1]; melt method, HCO-60 3.5 wt %): Clear solution | Resuspend in water ([1]; melt method, HCO-60 3.5 wt %, water at 40°): Clear solution | Final formulation (make up with 2X buffer containing 0.01% Oc-40) ([1]; melt method, HCO-60 4.0 wt %): Clear solution | Resuspend in water ([1]; melt method, HCO-60 4.0 wt %, water at 40°): Clear solution | Result ([1]; 1001 initially added 0.035 wt %): Clear/transparent | Result ([1]; 1001 initially added 0.070 wt %): Clear/transparent | Result ([1]; 1001 initially added 0.095 wt %): Clear/transparent | Result ([1]; 1001 initially added 0.120 wt %): Pale yellow color | Result ([1]; 1001 initially added 0.250 wt %): Yellow color | Result ([1]; 1001 initially added 0.300 wt %): Yellow color | Result ([1]; 1001 initially added 0.400 wt %): Yellow color | Hydrolysis to active metabolite RX-10008 in ocular tissues [2]: rapidly hydrolyzed
